Results from patent US8629251B2, “Specific detection and quantification of phosphatidic acid using an Arabidopsis trigalactosyldiacylglycerol-4 (TGD4) protein” (Board of Trustees of Michigan State University, priority 2008, dated 2014).

Columns and labels:
Format in all cases: binding
[1] = target: T1, Arabidopsis TGD2, DsRed-TGD2C with deletion of the 25-mer minimal domain (DR-Δ25, residues 201-225 deleted) (Arabidopsis thaliana, UniProt Q9LTR2, DEL201-225); assay: Liposome-association assay, minimal domain deletion DR-Δ25
T1 construct: made in house; host or cells: Escherichia coli BL21 (DE3)
Description: The liposome association assay was performed as previously reported. (31). Briefly, lipids (dioleoyl-phosphatidylcholine, DOPC or dioleoyl-PA, DOPA) were incubated in TBS (50 mM Tris-HCl, pH 7; 0.1 M NaCl) at 37° C. for an hour followed by vigorous vortexing for 5 min. The liposomes were precipitated at 20,000 g and washed twice with ice-cold TBS.
Liposomes (200 μg) were mixed with purified DsRed-TGD2 fusion protein and TBS to make a final 100 μL solution. The mixture was incubated at 30° C. for 30 min and washed twice with ice-cold TBS by centrifugation at 20,000 g at 4° C. The liposome pellet mixed with sample buffer was analyzed by SDS-PAGE (28). Immuno-detection of the His-tagged protein was accomplished using the above mentioned Penta-His antibody at 1:15,000 and the anti mouse antibody at 1:75,000 dilution.
(§1) The protein band was visualized by chemiluminescent detection kit from Sigma. The autoradiography film was scanned, distinct protein bands were quantified using computer software Multi Gauge V3.0 (Fujifilm USA, Valhalla, N.Y.) and resulted data were plotted and analyzed by OriginPro8 (Origin lab corporation, Northampton, Mass.).

[2] = target: Arabidopsis TGD2, DsRed fusion of the 25-mer minimal domain (residues 201-225, SEQ ID NO:12), K221A (Arabidopsis thaliana, UniProt Q9LTR2, K221A); assay: Liposome-association assay, point mutant K221A of the minimal domain; conditions: 100% PA liposomes, FIG. 4C
Description: Some reports have identified that TGD2 PA-binding regions involve basic amino acids and/or tryptophan residues (10). […] Based on sequence similarity of TGD2 to its closely related homologs in plants and green algae, several charged and/or conserved amino acids were picked as potential interesting residues in the 25-mer minimal domain for possibly mediating interactions with PA. An alanine screen was then performed to evaluate these residues within a minimal PA binding region of TGD2 (i.e., for example, SEQ ID NO:12). Point mutations were generated in the 25-mer minimal domain and fused with DsRed to test PA binding by liposome-association assay using 100% PA liposomes.
The liposome association assay was performed as previously reported. (31). […]
Liposomes (200 μg) were mixed with purified DsRed-TGD2 fusion protein and TBS to make a final 100 μL solution. […] The liposome pellet mixed with sample buffer was analyzed by SDS-PAGE (28). […]
as §1

[3] = target: T2, Arabidopsis TGD4, DsRED-TGD4-His, full-length TGD4 1-479 (SEQ ID NO: 132) (Arabidopsis thaliana, UniProt Q9M903); assay: Protein-lipid overlay assay, DsRED-TGD4-His; conditions: commercial phospholipid membrane, FIG. 18A
T2 sequence (Q9M903 1-479): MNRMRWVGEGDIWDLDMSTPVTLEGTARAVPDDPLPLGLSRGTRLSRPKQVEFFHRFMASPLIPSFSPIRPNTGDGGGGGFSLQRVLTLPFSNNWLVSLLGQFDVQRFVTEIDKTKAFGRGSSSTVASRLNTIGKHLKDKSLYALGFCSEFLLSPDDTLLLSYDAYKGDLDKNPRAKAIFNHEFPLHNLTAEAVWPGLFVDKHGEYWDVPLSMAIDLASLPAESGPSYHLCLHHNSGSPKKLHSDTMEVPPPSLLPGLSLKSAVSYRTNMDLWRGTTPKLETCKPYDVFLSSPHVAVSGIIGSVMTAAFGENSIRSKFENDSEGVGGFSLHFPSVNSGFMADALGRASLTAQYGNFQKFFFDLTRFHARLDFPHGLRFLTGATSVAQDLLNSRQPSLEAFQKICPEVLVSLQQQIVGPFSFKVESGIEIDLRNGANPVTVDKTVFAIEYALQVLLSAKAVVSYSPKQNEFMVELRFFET
Description: Protein-Lipid Overlay Assay:
The protein-lipid overlay assay was modified from (Awai et al., 2006, Lu and Benning, 2009). Phosphoinositol-4,5-bisphosphate PIP2) lipid strips were purchased from Echelon Biosciences (Salt Lake City, Utah). Lipids spotted onto membranes were purchased from Avanti Polar Lipids (Alabaster, Al.) as well as Larodan Fine Chemicals (Malmo, Sweden). Lipids (10 nmol) were suspended in 20 μl spotting buffer (250 μl chloroform, 500 μl methanol, 200 μl 50 mM HCl, 2 μl 1% (w/v) Ponseau S (Sigma, St. Louis, Mo.)) and spotted onto Amersham Hybond-C Extra membranes (GE Healthcare, Piscataway, N.J.) followed by drying for 1 hour in a fume hood. The lipid membranes were then blocked in 3% (w/v) bovine serum albumin (BSA) in TBST buffer (TBS with 0.25% (v/v) Tween 20) for 2 hours at room temperature. Purified DsRED-TGD4-His fusion proteins were added at 1 μg/ml final concentration and incubated overnight at 4° C. followed by washing 3 times in TBST. Lipid membranes were then incubated with 1:2000 diluted His antibody (Sigma) in blocking buffer for 2 hours at room temperature followed by 2 washes with TBST. The membranes were processed for immunoblotting as described below.

[4] = target: T2, Arabidopsis TGD4, DsRED-TGD4-His, full-length TGD4 1-479 (SEQ ID NO: 132); assay: Liposome association assay, DsRED-TGD4-His; conditions: pH range of 6.4-7.8, FIG. 18E
Description: Liposome Association Assay:
The liposome association assay was adapted from (Awai et al., 2006, Lu and Benning, 2009) with minor modifications. Dioleoyl-PtdCho and PtdOH with different acyl chain lengths and desaturation levels were used for making liposomes. In other liposomes 1-palmitoyl-2-(12-((7-nitro-2-1,3-benzoxadiazol-4-yl)amino)dodecanoyl)-sn-glycero-3-phosphate (NBD-PtdOH; Avanti, Alabaster, Ala.) was used. The lipids were mixed at indicated ratios to give a total lipid amount of 250 μg. The lipids were dried under a stream of nitrogen, resuspended in 0.5 ml TBS buffer with 0.2 M choline chloride and hydrated at 37° C. for 1 hour followed by vigorous vortexing for 2 minutes. The resulting multi-lamellar vesicles were centrifuged at 13,000×g for 10 minutes and then washed once with TBS buffer containing 0.2 M choline chloride. The liposomes were resuspended into 100 μl TBS buffer with 0.2 M choline chloride and incubated with 2 μg purified DsRED-TGD4-His protein and its derivatives. The protein liposome mixture was incubated on ice for 30 minutes followed by centrifugation at 13,000×g for 10 minutes and two washes with 500 μl TBS containing 0.2 M choline chloride. The resulting protein-liposome pellet was resuspended in 20 μl 2× Laemmli buffer (Laemmli, 1970) and processed by SDS-PAGE (Shapiro and Maizel, 1969).

[5] = mixed PA/PC liposomes, FIGS. 5E and 5F

T1 sequence (Q9LTR2 other isoform, or with tags, fused parts or gaps DEL201-225): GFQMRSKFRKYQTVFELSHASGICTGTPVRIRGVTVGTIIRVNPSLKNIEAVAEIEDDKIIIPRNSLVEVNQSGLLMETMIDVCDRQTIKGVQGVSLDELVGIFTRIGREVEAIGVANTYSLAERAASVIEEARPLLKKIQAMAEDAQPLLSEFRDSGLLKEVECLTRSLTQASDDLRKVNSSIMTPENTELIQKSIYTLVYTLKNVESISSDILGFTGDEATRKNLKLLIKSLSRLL
Arabidopsis TGD2, DsRed fusion of the 25-mer minimal domain (residues 201-225, SEQ ID NO:12), K221A, sequence (Q9LTR2 201-225 K221A): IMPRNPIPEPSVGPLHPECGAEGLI

CCCCCCCC/C=C\CCCCCCCC(=O)OC[C@H](COP(=O)(O)O)OC(=O)CCCCCCC/C=C\CCCCCCCC [PA, phosphatidic acid]
residual PA binding activity ([1]; PA liposomes): retains residual binding activity, albeit with significantly lower affinity | Hill number, PA binding [1, 5]: 7.3 | Kd, PA binding [1, 5]: 53.47 mol % | PA binding [2]: significantly reduced the amount of interaction with PA-liposomes | binding to lipids on membranes [3]: specifically bind | effect of pH on PtdOH binding [4]: not affected
